# Results: patent US9073854B2, “Aromatic sulfonium salt compound” (ADEKA CORPORATION, priority 2009, dated 2015)
# Assay: Solubility in polyvinylphenol/tetramethylammonium hydroxide (TMAH) aqueous solution
# Assay type: physicochemical
# Settings: mass ratio of compound to polyvinylphenol of the saturated solution; polyvinylphenol in 3% TMAH aqueous solution
# Protocol: In a screw-top tube were put 0.36 g of polyvinylphenol (S-2P from Maruzen Petrochemical Co., Ltd.; Mw: 5800) and 10.00 g of a 3% TMAH aqueous solution and heated to dissolve. A 2.00 g portion of the resulting solution was put in another screw-top tube, and a small amount of each of compound Nos. 1 and 5 and comparative compound No. 1 (intermediate No. 7 obtained in step 1 of Example 1-7) was added thereto and heated. A visual check was made to see whether the compound dissolved. This operation was repeated until saturation. The saturated solution was allowed to stand one day to make sure that no solid precipitated. The mass ratio of each compound to the polyvinylphenol of the saturated solution was taken as a parameter of solubility.
row,Solubility (%),Structure (SMILES)
1,< 1,"Cn1c2ccccc2c(=O)c2cc([S+](c3ccc(F)cc3)c3ccc(F)cc3)ccc21 [Comp. Compound No. 1, reference compound]"
2,70,Cn1c2ccccc2c(=O)c2cc([S+](c3ccc(O)cc3)c3ccc(O)cc3)ccc21 [Compound No. 1]
3,29,O=c1c2ccccc2n(Cc2cccc(O)c2)c2ccc([S+](c3ccc(F)cc3)c3ccc(F)cc3)cc12 [Compound No. 5]
